The text below walks through data of patent US8575100B2, “Tc and Re labeled radioactive glycosylated octreotide derivatives” (Mallinckrodt LLC, priority 2001, dated 2013).

Series [1] deals with AR42J-cells (SSTR2). Kind of series: Externalization and recycling of radioligands in AR42J cells. The class given is cell-based, rat. To be noted: for extracellularly located radioactivity compared to the experiment without recycling: externalization experiment that allowed recycling; for externalisation from the cell (in words): upon incubation up to 120 min. The procedure:
(§1) The cells were incubated with the radioligand for up to 120 min (n=3). At each time point the activity in the supernatant, the surface-bound and the internalized activity were determined and normalized to the values of TOC. Externalization and recycling was studied after an incubation time of 120 min over 2 h. Specificity of ligand binding was studied in a competition experiment with […] Sandostatin.
(§2) Internalisation and externalisation experiments were performed using the sst2 expressing rat pancreatic tumor cell line AR42J. Free, surface bound and internalised radioactivity were determined after 10, 30, 60, 90 and 120 min. of incubation with the radioligands at 37° C. In the externalisation experiments allowing ligand recycling, the fraction of radioactivity released into the supernatant during 10, 30, 60, 90 and 120 min as well as the radioactivity remaining in the cells were determined. We also measured the activity released during 5 subsequent incubations (10, 20 and 3×30 min) with intermediate changes of the medium (limited recycling).
As described for the internalization studies, the six-well plates were incubated at 37° C. with fresh culture medium (RPMI 1640, 1% BSA, 2 mM L-Glutamine) for 1H prior to the experiment. Then app. […] After incubating for 120 min. at 37° C., the supernatant was collected and the cells were washed once with 1 ml of cold medium. The supernatant was pooled with the supernatant of the previous step. To collect externalized radioactivity the cells were then incubated at 37° C. with 1 ml of culture medium. After 10, 30, 60, 90 and 120 minutes respectively, the supernatant was collected, the cells were washed once with 1 ml of culture medium and the supernatant was again pooled with the supernatant of the previous step. Then the cells were extracted with 1 ml of 1 N NaOH and the wells were rinsed once with PBS. This pooled fraction represents radioligand still located in the cell. The activity in the NaOH-fraction as well as in the supernatant- and in the externalisation-fractions was counted in a γ-Counter.
As described for the previous experiment, a six-well plate was incubated for 120 min. at 37° C. with radioligand. The supernatant was collected and the cells were washed once with 1 ml of cold medium. The supernatant was pooled with the supernatant of the previous step. To collect externalized radioactivity the cells were then incubated at 37° C. with 1 ml of culture medium. After 10 min. the supernatant was collected and the cells were again incubated with 1 ml of culture medium for another 20 min. at 37° C. The supernatant was collected and the cells were three more times incubated with 1 ml of culture medium for 30 min. at 37° C. Then the cells were extracted with 1 ml of 1 N NaOH and the wells were rinsed once with PBS. This pooled fraction represents radioligand still located in the cell. The activity in the NaOH-fraction as well as in the externalisation-fractions at all time points was counted in a […].

Series [2] has as its system AR42J-cells (SSTR2). Description: Internalization of radioligands in AR42J cells. The following applies: for internalised ligand / internalisation rate (% internalised ligand/% surface-bound ligand): 60 min incubation; for internalised ligand: normalized to the reference [125I]TOC; for internalisation rate (% internalised ligand/% surface-bound ligand): ratio normalized to the reference [125I]TOC. Here is the method:
as §1, §2
Coupling of glucose (Gluc) and maltotriose (Mtr) to N^α-Lys of N^ε-(Boc-His(Boc))Lys^0-Tyr^3-Lys^5(Dde)-octreotide (protected K(H)TOC) and final deprotection yielded Gluc- and Mtr-K(H)TOC. ^99mTc-labeling was carried out using [^99mTc(H2O)3(CO)3]^+. […] Biodistribution was evaluated in nude mice bearing AR42J tumors at 0.5 and 2 h p.i (n=4).
N^ε(Boc-His(Boc))Lys^0-Tyr^3-Lys^5 (Dde)-octreotide (protected K(H)TOC) was synthesized using standard Fmoc-chemistry. […] Tc-99m-labeling was carried out using the organometallic aquaion [^99mTc (H2O)3 (CO)3]^+(1). Internalization and externalization studies (<120 min) were performed for both compounds using the SSTR2 expressing cell line AR42J. […] Biodistribution of intravenously administered [^99mTc]Gluc-K(H)TOC and [^99mTc]Mtr-K(H)TOC was evaluated in nude mice bearing AR42J rat pancreatic tumors at 30 and 120 min p.i(n=4).
Six-well plates with a cell population of 8×10^5-5×10^6 AR42J-cells per well were incubated at 37° C. with fresh culture medium (RPMI 1640, 1% BSA, 2 mM L-glutamine) for 1 h prior to the experiment. Then app. […] After incubating for 10, 30, 60, 90 or 120 min. at 37° C. the supernatant was collected and the cells were washed once with 1 ml of cold medium. The supernatant was pooled with the supernatant of the previous step. To remove receptor bound (acid releasable) radioactivity the cells were incubated at 37° C. with 1 ml of 0.02 M NaOAc (acid wash). After 10 min. the supernatant was collected, the cells were washed once with 1 ml of 0.02 M NaOAc and the supernatant was again pooled with the supernatant of the previous step. Then the cells were extracted with 1 ml of 1 N NaOH and the wells were rinsed once with PBS. This pooled fraction represents internalized radioligand. The activity in the NaOH-fraction as well as in the supernatant- and in the acid wash-fractions was counted in a γ-Counter.

The nature of series [3]: Determination of lipophilicity (octanol/PBS). It counts as physicochemical. To be noted: octanol/PBS pH 7.4; radiolabeled peptide; n=6. Here is the method: To a solution of app. 300000 cpm of radiolabeled peptide in […] of PBS (pH 7.4), […] of octanol were added (n=6). Vials were vortexed for 3 min and then centrifuged at 15000 rpm for 6 min. Aliquots of […] of PBS and octanol were measured in a γ-Counter.

On to [^125I]Tyr^3-octreotate [[^125I]TOCA], for which the “extracellularly located radioactivity compared to the experiment without recycling” value with AR42J-cells (SSTR2) [1] (printed as a fraction) is on record as “about ⅔”. In the series with AR42J-cells (SSTR2) [2], the “surface availability (% surface-bound ligand/% free radioligand)” value stood at 182 ± 6, the internalised ligand is listed as 204 ± 7 and the “internalisation rate (% internalised ligand/% surface-bound ligand)” value is on record as 140 ± 8. Further, the “amount of internalized ligand [% internalized TOC]” value with AR42J-cells (SSTR2) [2] (after 2 h of incubation, normalized to TOC) is reported as 154%. In the series with AR42J-cells (SSTR2) [2] (compared to TOC), the “internalization rate (internalized/surface bound act.) increase” value came out at 1.4 fold and the “surface concentration (availability on the cell surface) increased by a factor compared to TOC” value came to 2.1.

Turning to [^125I]Tyr^3-octreotide [[^125I]TOC], in the series on AR42J-cells (SSTR2) [1], the “extracellularly located radioactivity compared to the experiment without recycling” value is “about 80%” and the “externalisation from the cell (in words)” value is “rapidly externalised”. Moreover, the “decrease of intracellular activity” value with AR42J-cells (SSTR2) [1] (within 2 h (120 min)) was “about 50%”. In the series on AR42J-cells (SSTR2) [2], the internalised ligand is given as 100 and the “internalisation rate (% internalised ligand/% surface-bound ligand)” value amounted to 100.

As to “Na-(1-deoxy-D-fructosyl)-Lys^0(Nε-His [^99mTc (H2O)(CO)3]+)-Tyr^3-octreotide [[^99mTc]Gluc-K^0(H)TOC]”, the results for the “externalisation from the cell (in words)” value in the series with AR42J-cells (SSTR2) [1] and in the series with AR42J-cells (SSTR2) [1] (listed as [^99mTc]Gluc-K(H)TOC) were “remains trapped within the cell up to 120 min” and “almost stable up to 2h”, respectively. The “retention in the cell under recycling conditions” value in the series with AR42J-cells (SSTR2) [1] (within 120 min, recycling allowed) is “nearly quantitative retention”. The substance also yielded an internalised ligand with AR42J-cells (SSTR2) [2] of 234 ± 24. The “internalisation rate (% internalised ligand/% surface-bound ligand)” value in the series with AR42J-cells (SSTR2) [2] came out at 171 ± 29. Besides, in the series on AR42J-cells (SSTR2) [2] (Example 2, time not given), the “increase of internalisation by a factor compared to the reference [125I]TOC” value is on record as 2.3±0.8. The “intracellular activity levels, times higher than [125I]TOC” value in the series on AR42J-cells (SSTR2) [2] (at 2 h (120 min)) was 2.3±0.2 times.

In the case of “(1-deoxy-D-fructosyl)-Lys^0Nε-His)-Tyr^3-octreotide [S1-Lys^0(His)TOC]”, the “log Pow” value in series [3] was “log Pow = −0.673 ± 0.064”.
